According to BigSolDB 2.1:

O=C(O)CCCC(=O)O
Settings	solubility (mole fraction)
in acetic acid, 292.75 K	0.162
in acetic acid, 297.84 K	0.183
in acetic acid, 301.3 K	0.203
in acetic acid, 304.47 K	0.221
in acetic acid, 307.28 K	0.241
in acetic acid, 310.19 K	0.257
in acetic acid, 313.64 K	0.28
in acetic acid, 316.5 K	0.302
in acetic acid, 319.05 K	0.323
in acetic acid, 321.38 K	0.345
in acetic acid, 325.45 K	0.373
in acetic acid, 327.38 K	0.399
in acetic acid, 332.97 K	0.436
in acetic acid, 335.25 K	0.478
in acetic acid, 338.05 K	0.514
in acetic acid, 341.94 K	0.553
in acetic acid, 344.21 K	0.585
in acetic acid, 347.24 K	0.621
in acetic acid, 349.88 K	0.651
in acetic acid, 353.36 K	0.712
in cyclohexanol, 299.75 K	0.205
in cyclohexanol, 302.7 K	0.219
in cyclohexanol, 305.85 K	0.234
in cyclohexanol, 308.6 K	0.25
in cyclohexanol, 313.19 K	0.271
in cyclohexanol, 316 K	0.288
in cyclohexanol, 318.55 K	0.312
in cyclohexanol, 320.55 K	0.33
in cyclohexanol, 325.15 K	0.366
in cyclohexanol, 326.5 K	0.371
in cyclohexanol, 332.55 K	0.428
in cyclohexanol, 334.9 K	0.455
in cyclohexanol, 336.3 K	0.477
in cyclohexanol, 339.75 K	0.511
in cyclohexanol, 342.15 K	0.545
in cyclohexanol, 344.8 K	0.571
in cyclohexanol, 347.19 K	0.622
in cyclohexanol, 350.05 K	0.66
in cyclohexanol, 351.93 K	0.693
in cyclohexanol, 352.48 K	0.719
in cyclohexanol, 352.95 K	0.748
in cyclohexanone, 294 K	0.161
in cyclohexanone, 299.7 K	0.189
in cyclohexanone, 304.5 K	0.213
in cyclohexanone, 308.05 K	0.241
in cyclohexanone, 311.94 K	0.264
in cyclohexanone, 314.15 K	0.283
in cyclohexanone, 317.54 K	0.307
in cyclohexanone, 320.3 K	0.334
in cyclohexanone, 325.05 K	0.366
in cyclohexanone, 326.95 K	0.392
in cyclohexanone, 330.5 K	0.428
in cyclohexanone, 333.81 K	0.458
in cyclohexanone, 335.23 K	0.478
in cyclohexanone, 338.35 K	0.513
in cyclohexanone, 342.65 K	0.557
in cyclohexanone, 346.8 K	0.598
in cyclohexanone, 347.65 K	0.627
in cyclohexanone, 349.7 K	0.655
in cyclohexanone, 351.5 K	0.679
in cyclohexanone, 353.65 K	0.705
